Literature values, collected in paper PMC12181400, “Leveraging viral genome sequences and machine learning models for identification of potentially selective antiviral agents” (Communications Chemistry, 2025).
Counter-ions that a name gives are not always drawn. Like-named read-outs stand apart in the source and are kept apart here.

Assays:
Details in all cases: cited from earlier work
[1] = tested on: cell viability (tox21-ar-mda-kb2-luc-antagonist-p2)
[2] = tested on: cell viability (tox21-ap1-agonist-p1)
[3] = tested on: cell viability (tox21-ar-mda-kb2-luc-agonist-p3)
[4] = tested on: cell viability (tox21-car-antagonist-p1)
[5] = tested on: cell viability (tox21-car-agonist-p1)
[6] = tested on: cell viability (tox21-are-bla-p1)
[7] = curve rank −9 to 9, 0 = inactive, ref NCATS Tox21 public data browser

| Structure (SMILES) | tox21-ar-mda-kb2-luc-antagonist-p2-viability (curve rank) [1] | tox21-ap1-agonist-p1-viability (curve rank) [2] | tox21-ar-mda-kb2-luc-agonist-p3-viability (curve rank) [3] | tox21-car-antagonist-p1-viability (curve rank) [4] | tox21-car-agonist-p1-viability (curve rank) [5] | tox21-are-bla-p1-viability (curve rank) [6] | tox21-ar-mda-kb2-luc-antagonist-p2-viability (curve rank) [1, 7] | tox21-ap1-agonist-p1-viability (curve rank) [2, 7] | tox21-ar-mda-kb2-luc-agonist-p3-viability (curve rank) [3, 7] | tox21-car-antagonist-p1-viability (curve rank) [4, 7] | tox21-car-agonist-p1-viability (curve rank) [5, 7] | tox21-are-bla-p1-viability (curve rank) [6, 7] |
| --- | --- | --- | --- | --- | --- | --- | --- | --- | --- | --- | --- | --- |
| CCOC(=O)[N-]c1cn(N2CCOCC2)n[o+]1 [Molsidomine] | 0 | 0 | 0 | 0 | 0 | 0 | – | – | – | – | – | – |
| c1ccc2c(CC3=NCCN3)cccc2c1 [Naphazoline hydrochloride] | 0 | 0 | 0 | 0 | 0 | 0 | – | – | – | – | – | – |
| O=C(CCNNC(=O)c1ccncc1)NCc1ccccc1 [Nialamide] | 0 | 0 | 0 | 0 | 0 | 0 | – | – | – | – | – | – |
| O=C(NCCO[N+](=O)[O-])c1cccnc1 [Nicorandil] | 0 | 0 | 0 | 0 | 0 | 0 | – | – | – | – | – | – |
| CN1Cc2c(N)cccc2C(c2ccccc2)C1 (stereo not drawn) [Nomifensine maleate] | 0 | 0 | 0 | 0 | 0 | 0 | – | – | – | – | – | – |
| Cc1ncc([N+](=O)[O-])n1CC(O)CCl (stereo not drawn) [Ornidazole] | 0 | 0 | 0 | 0 | 0 | 0 | – | – | – | – | – | – |
| CC(=O)CCCCn1c(=O)c2c(ncn2C)n(C)c1=O [Pentoxifylline] | 0 | 0 | 0 | 0 | 0 | 0 | – | – | – | – | – | – |
| NC(=O)NC(=O)Cc1ccccc1 [Phenacemide] | – | – | – | – | – | – | 0 | 0 | 0 | 0 | 0 | 0 |
| CCOc1ccc(NC(C)=O)cc1 [Phenacetin] | 0 | 0 | 0 | 0 | 0 | 0 | – | – | – | – | – | – |
| O=C(O)COc1ccccc1 [Phenoxyacetic acid] | – | – | – | – | – | – | 0 | 0 | 0 | 0 | 0 | 0 |
| CN1C(=O)CC(c2ccccc2)C1=O (stereo not drawn) [Phensuximide] | 0 | 0 | 0 | 0 | 0 | 0 | – | – | – | – | – | – |
| Nc1ccc(C(=O)Oc2ccccc2)c(O)c1 [Phenyl 4-aminosalicylate] | – | – | – | – | – | – | 0 | 0 | 0 | 0 | 0 | 0 |
| CC(N/C(=N\C#N)Nc1ccncc1)C(C)(C)C (stereo not drawn) [Pinacidil monohydrate] | 0 | 0 | 0 | 0 | 0 | 0 | – | – | – | – | – | – |
| CCn1cc(C(=O)O)c(=O)c2cnc(N3CCNCC3)nc21 [Pipemidic acid] | 0 | 0 | 0 | 0 | 0 | 0 | – | – | – | – | – | – |
| CC[N+]1(C)CCCC(OC(=O)C(O)(c2ccccc2)c2ccccc2)C1 (stereo not drawn) [Pipenzolate bromide] | 0 | 0 | 0 | 0 | 0 | 0 | – | – | – | – | – | – |
| O=C(CCBr)N1CCN(C(=O)CCBr)CC1 [Pipobroman] | 0 | 0 | 0 | 0 | 0 | 0 | – | – | – | – | – | – |
| CN1C(C(=O)Nc2ccccn2)=C(O)c2ccccc2S1(=O)=O [Piroxicam] | 0 | 0 | 0 | 0 | 0 | 0 | – | – | – | – | – | – |
| CC(C)(C)C(=O)OCOC(=O)[C@@H]1N2C(=O)[C@@H](NC(=O)[C@H](N)c3ccccc3)[C@H]2SC1(C)C [Pivampicillin] | 0 | 0 | 0 | 0 | 0 | 0 | – | – | – | – | – | – |
| CCC1(c2ccccc2)C(=O)NCNC1=O [Primidone] | 0 | 0 | 0 | 0 | 0 | 0 | – | – | – | – | – | – |
| CC(C)(Sc1cc(C(C)(C)C)c(O)c(C(C)(C)C)c1)Sc1cc(C(C)(C)C)c(O)c(C(C)(C)C)c1 [Probucol] | 0 | 0 | 0 | 0 | 0 | 0 | – | – | – | – | – | – |
| CC(O)Cn1cnc2c1c(=O)n(C)c(=O)n2C (stereo not drawn) [Proxyphylline] | 0 | 0 | 0 | 0 | 0 | 0 | – | – | – | – | – | – |
| Cc1c(NC(C)C)c(=O)n(-c2ccccc2)n1C [Ramifenazone] | 0 | 0 | 0 | 0 | 0 | 0 | – | – | – | – | – | – |
| CC(Cc1ccccc1)(NC(=O)CN)c1ccccc1 (stereo not drawn) [Remacemide hydrochloride] | – | – | – | – | – | – | 0 | 0 | 0 | 0 | 0 | 0 |
| CCN1CCC[C@H]1CNC(=O)c1c(OC)ccc(Br)c1OC [Remoxipride] | 0 | 0 | 0 | 0 | 0 | 0 | – | – | – | – | – | – |
| COc1ccc(C2CNC(=O)C2)cc1OC1CCCC1 (stereo not drawn) [Rolipram] | – | – | – | – | – | – | 0 | 0 | 0 | 0 | 0 | 0.67 |
| CN(C(=O)c1c(O)c2ccccc2n(C)c1=O)c1ccccc1 [Roquinimex] | 0 | 0 | 0 | 0 | 0 | 0 | – | – | – | – | – | – |
| O=C1NS(=O)(=O)c2ccccc21 [Saccharin] | 0 | 0 | 0 | 0 | 0 | 0 | – | – | – | – | – | – |
| NC(=O)c1ccccc1O [Salicylamide] | 0 | 0 | 0 | 0 | 0 | 0 | – | – | – | – | – | – |
| O=C(Oc1ccccc1C(=O)O)c1ccccc1O [Salsalate] | 0 | 0 | 0 | 0 | 0 | 0 | – | – | – | – | – | – |
